Experimental data from patent publication US8431563B2 (priority 2010, dated 2013).
Read-outs that look alike come from different tables or passages of the source.

Tests used:
[1] = biological target: T1, GKRP (Glucokinase Regulatory Protein) with human His-hepatic GK (Homo sapiens, UniProt Q14397); experiment: biochemical
T1 sequence (Q14397 1-625): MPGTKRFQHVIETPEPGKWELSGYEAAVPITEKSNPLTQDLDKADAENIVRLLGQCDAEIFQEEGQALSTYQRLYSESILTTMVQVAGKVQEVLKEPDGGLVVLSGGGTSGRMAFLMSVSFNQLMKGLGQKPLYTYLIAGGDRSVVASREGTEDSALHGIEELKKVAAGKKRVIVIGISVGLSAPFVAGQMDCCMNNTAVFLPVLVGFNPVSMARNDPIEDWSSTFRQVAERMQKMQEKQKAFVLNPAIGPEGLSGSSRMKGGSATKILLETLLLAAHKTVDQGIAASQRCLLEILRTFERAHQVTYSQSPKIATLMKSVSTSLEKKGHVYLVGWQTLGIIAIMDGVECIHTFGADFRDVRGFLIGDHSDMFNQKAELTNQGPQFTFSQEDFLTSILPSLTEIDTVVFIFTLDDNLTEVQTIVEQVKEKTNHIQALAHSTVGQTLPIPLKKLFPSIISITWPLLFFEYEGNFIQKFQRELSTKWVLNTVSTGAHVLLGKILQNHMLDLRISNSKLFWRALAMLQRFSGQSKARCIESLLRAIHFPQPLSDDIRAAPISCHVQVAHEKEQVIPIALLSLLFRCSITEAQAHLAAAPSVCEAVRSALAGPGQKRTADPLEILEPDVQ
Description: GKRP LC MS/MS-2 Biochemical Assay
This assay is used to directly measure the formation of ^13C-glucose-6-phosphate from ^13C-glucose by LC MS/MS. Begin by preparing the following solutions: Compound Buffer (CB): 50 mM Tris, pH 7.5/4 mM MgCl2/6% DMSO/fresh 10 mM DTT from 1M frozen stock. Enzyme Buffer (EB): 50 mM Tris, pH 7.5/4 mM MgCl2/6% DMSO/fresh 0.1% BSA/fresh 0.01% Brij-35 (10% BSA and 1% Brij-35 stock). GK (Glucokinase) Working Stock (5×): Dilute human His-hepatic GK to 30 nM in EB buffer. […] After 30 minutes add 10 μl of GK Working Stock (5×). Re-seal the plate and incubate for another 30 minutes at room temperature while mixing. After the second 30 minutes, stop the reaction by the addition of 50 μl of 100% acetonitrile, seal, and mix for 5-10 minutes. Run 10 μl of this sample through the LC MS/MS (API 3200, Applied Biosystems, Carlsbad, Calif.).

[2] = biological target: T2, interaction between glucokinase (GK) and glucokinase regulatory protein (GKRP) (Homo sapiens, UniProt Q14397); experiment: biochemical; type: binding
T2 sequence (Q14397 1-625): T1 sequence (Q14397 1-625)
Description: GK-GKRP Binding Assay Protocol
This assay is used to directly measure the interaction between glucokinase (GK) and glucokinase regulatory protein (GKRP). Begin by preparing the following solutions. Assay Buffer: 20 mM Tris, pH 7.5/0.05% BSA/1 mM DTT/1 μM sorbitol-6-phosphate. […] Combine the following reagents in a white 96-well half area plate. Pipette 14 μl of the diluted avi-tagged GKRP into each well. Add 1 μl of compound to be tested and incubate at room temperature for 20 minutes. After 20 minutes, add 5 μl of assay buffer containing 6 nM GK-fluorescein. […] Incubate in a dark room for 2 hours at room temperature. After 2 hours read the plate using an Envision plate reader (Perkin Elmer, Waltham Mass.).

[3] = avi-tagged GKRP, GK-fluorescein, AlphaScreen beads, read-out: GK-GKRP IC50 (Binding)
[4] = 13C-glucose-6-phosphate formation, 280 nM GKRP (10×), 30 nM GK (5×), read-out: GK-GKRP EC50 (LC MS/MS-2)
[5] = GK-GKRP EC50 (LC MS/MS-2), 13C-glucose-6-phosphate formation, 280 nM GKRP (10×), 30 nM GK (5×)

| Compound | IC50 [2, 3] [nM] | EC50 [1, 4] [nM] | further results |
| --- | --- | --- | --- |
| CC(O)(c1ccc(N2CCN(S(=O)(=O)c3cccs3)C[C@@H]2CN2CC3(COC3)C2)cc1)C(F)(F)F (mixture of isomers) [Example 84, 1,1,1-trifluoro-2-(4-((2S)-2-(2-oxa-6-azaspiro[3.3]hept-6-ylmethyl)-4-(2-thiophenylsulfonyl)-1-piperazinyl)phenyl)-2-propanol] | 667 | – | EC50 ([1]; GK-GKRP EC50 (LC MS/MS-2)): 659 nM |
| CC1CS(=O)(=O)CCN1C[C@H]1CN(S(=O)(=O)c2cccs2)CCN1c1ccc(C(C)(O)C(F)(F)F)cc1 (mixture of isomers) [Example 86, 1,1,1-trifluoro-2-(4-((2S)-2-((3-methyl-1,1-dioxido-4-thiomorpholinyl)methyl)-4-(2-thiophenylsulfonyl)-1-piperazinyl)phenyl)-2-propanol] | 61 | 115 | – |
| CC(O)(c1ccc(N2CCN(S(=O)(=O)c3cccs3)C[C@@H]2CN2CCS(=O)(=O)CC2C2CC2)cc1)C(F)(F)F (mixture of isomers) [Example 87, 2-(4-((2S)-2-((3-cyclopropyl-1,1-dioxido-4-thiomorpholinyl)methyl)-4-(2-thiophenylsulfonyl)-1-piperazinyl)phenyl)-1,1,1-trifluoro-2-propanol] | 229 | 246 | – |
| C[C@H]1COCCN1C[C@H]1CN(S(=O)(=O)c2nccs2)CCN1c1ccc(C(C)(O)C(F)(F)F)cc1 (mixture of isomers) [Example 102, 1,1,1-trifluoro-2-(4-((2S)-2-(((3S)-3-methyl-4-morpholinyl)methyl)-4-(1,3-thiazol-2-ylsulfonyl)-1-piperazinyl)phenyl)-2-propanol] | 134 | 137 | – |
| CCOC(=O)CC1COCCN1C[C@H]1CN(S(=O)(=O)c2cccs2)CCN1c1ccc(C(C)(O)C(F)(F)F)cc1 (mixture of isomers) [Example 113] | 333 | 308 | – |
| CN(C)C(=O)CC1COCCN1C[C@H]1CN(S(=O)(=O)c2cccs2)CCN1c1ccc(C(C)(O)C(F)(F)F)cc1 (mixture of isomers) [Example 114, N,N-dimethyl-2-(4-(((2S)-4-(2-thiophenylsulfonyl)-1-(4-(2,2,2-trifluoro-1-hydroxy-1-methylethyl)phenyl)-2-piperazinyl)methyl)-3-morpholinyl)acetamide] | 90 | 124 | – |
| CC(O)(c1ccc(N2CCN(S(=O)(=O)c3cccs3)C[C@@H]2COCc2ccco2)cc1)C(F)(F)F (mixture of isomers) [Example 116, 1,1,1-trifluoro-2-(4-((2R)-2-((2-furanylmethoxy)methyl)-4-(2-thiophenylsulfonyl)-1-piperazinyl)phenyl)-2-propanol] | 284 | 103 | – |
| CC1(COC[C@H]2CN(S(=O)(=O)c3cccs3)CCN2c2ccc(C(C)(O)C(F)(F)F)cc2)COC1 (mixture of isomers) [Example 117, 1,1,1-trifluoro-2-(4-((2R)-2-(((3-methyl-3-oxetanyl)methoxy)methyl)-4-(2-thiophenylsulfonyl)-1-piperazinyl)phenyl)-2-propanol] | 467 | 463 | – |
| CC(O)(c1ccc(N2CCN(S(=O)(=O)c3cccs3)C[C@@H]2COCC2CCCO2)cc1)C(F)(F)F (mixture of isomers) [Example 118, 1,1,1-trifluoro-2-(4-((2R)-2-((tetrahydro-2-furanylmethoxy)methyl)-4-(2-thiophenylsulfonyl)-1-piperazinyl)phenyl)-2-propanol] | 570 | 1110 | – |
| Cn1cnc(COC[C@H]2CN(S(=O)(=O)c3cccs3)CCN2c2ccc(C(C)(O)C(F)(F)F)cc2)c1 (mixture of isomers) [Example 119, 1,1,1-trifluoro-2-(4-((2R)-2-(((1-methyl-1H-imidazol-4-yl)methoxy)methyl)-4-(2-thiophenylsulfonyl)-1-piperazinyl)phenyl)-2-propanol] | 392 | 169 | – |
| CC(O)(c1ccc(N2CCN(S(=O)(=O)c3cccs3)C[C@@H]2CNC2CCOCC2)cc1)C(F)(F)F (mixture of isomers) [Example 120, 1,1,1-trifluoro-2-(4-((2S)-2-((tetrahydro-2H-pyran-4-ylamino)methyl)-4-(2-thiophenylsulfonyl)-1-piperazinyl)phenyl)-2-propanol] | 493 | – | EC50 [1, 5]: 656 nM |
| C[C@H]1COCCN1C[C@H]1CN(S(=O)(=O)c2ccc(N)nc2)CCN1c1ccc(C(C)(O)C(F)(F)F)cc1 (mixture of isomers) [Example 125, 2-(4-((2S)-4-((6-amino-3-pyridinyl)sulfonyl)-2-(((3S)-3-methyl-4-morpholinyl)methyl)-1-piperazinyl)phenyl)-1,1,1-trifluoro-2-propanol] | 3 | 20 | – |
| CC(O)(c1cnc(N2CCN(S(=O)(=O)c3ccc(N)nc3)C[C@@H]2CC2CCOCC2)nc1)C(F)(F)F (mixture of isomers) [Example 131] | 124 | 102 | – |
| CC(O)(c1cnc(N2CCN(S(=O)(=O)c3ccc(N)s3)C[C@@H]2CC2CCOCC2)nc1)C(F)(F)F (mixture of isomers) [Example 135, 2-(2-((2S)-4-((5-amino-2-thiophenyl)sulfonyl)-2-(tetrahydro-2H-pyran-4-ylmethyl)-1-piperazinyl)-5-pyrimidinyl)-1,1,1-trifluoro-2-propanol] | 55 | 108 | – |
| CC(O)(c1ccc(N2CCN(S(=O)(=O)c3ccc(N)s3)C[C@@H]2Cc2ccccc2)cc1)C(F)(F)F (mixture of isomers) [Example 136, 2-(4-((2S)-4-((5-amino-2-thiophenyl)sulfonyl)-2-benzyl-1-piperazinyl)phenyl)-1,1,1-trifluoro-2-propanol] | 250 | 146 | – |
| C[C@H]1CN(S(=O)(=O)c2ccc(N)s2)CCN1c1ncc(C(C)(O)C(F)(F)F)cn1 (mixture of isomers) [Example 137, 2-(2-((2S)-4-((5-amino-2-thiophenyl)sulfonyl)-2-methyl-1-piperazinyl)-5-pyrimidinyl)-1,1,1-trifluoro-2-propanol] | – | – | EC50 ([1]; GK-GKRP EC50 (LC MS/MS-2)): 658 nM; IC50 ([2]; GK-GKRP IC50 (Binding)): 281 nM |
| CC(O)(c1ccc(N2CCN(S(=O)(=O)c3cccs3)C[C@@H]2CN2C3CCCC2CC(=O)C3)cc1)C(F)(F)F (mixture of isomers) [Example 140, 9-(((2S)-4-(2-thiophenylsulfonyl)-1-(4-(2,2,2-trifluoro-1-hydroxy-1-methylethyl)phenyl)-2-piperazinyl)methyl)-9-azabicyclo[3.3.1]nonan-3-one] | – | – | EC50 [1, 5]: 15 nM; IC50 ([2]; GK-GKRP IC50 (Binding), avi-tagged GKRP, GK-fluorescein, AlphaScreen beads): 7 nM |
| CC(O)(c1ccc(N2CCN(S(=O)(=O)c3cccs3)C[C@@H]2CN2C3CCCC2CC(O)C3)cc1)C(F)(F)F (mixture of isomers) [Example 141, 9-(((2S)-4-(2-thiophenylsulfonyl)-1-(4-(2,2,2-trifluoro-1-hydroxy-1-methylethyl)phenyl)-2-piperazinyl)methyl)-9-azabicyclo[3.3.1]nonan-3-ol (endo)] | 11 | – | EC50 [1, 5]: 26 nM |
| CC(F)(c1ccc(N2CCN(S(=O)(=O)c3cccs3)C[C@@H]2CN2C3CCCC2CC(F)C3)cc1)C(F)(F)F (mixture of isomers) [Example 142, 3-fluoro-9-(((2S)-1-(4-(1,2,2,2-tetrafluoro-1-methylethyl)phenyl)-4-(2-thiophenylsulfonyl)-2-piperazinyl)methyl)-9-azabicyclo[3.3.1]nonane (exo)] | 47 | 189 | – |
